# Results: publication PMC8560925, “Inhibition of Clostridium difficile TcdA and TcdB toxins with transition state analogues” (Nature Communications, 2021)
# Where “and” joins values, the source holds several entries; their conditions need not be identical. Equal values may be shown once. Where a name gives a salt, the structure may show the parent alone. Read-outs that look alike come from different tables or passages of the source.
# Experiments:
# [1] = target: T1, TcdB-GTD (Clostridioides difficile, UniProt P18177); test: biochemical; set-up: species or system Clostridium difficile
# T1 construct: C-terminal His-6 tagged TcdB-GTD (amino acids 1-546); His6 (C); made in house; host or cells: Escherichia coli One Shot BL21 Star (DE3)
# T1 sequence (P18177 1-546 limits assumed): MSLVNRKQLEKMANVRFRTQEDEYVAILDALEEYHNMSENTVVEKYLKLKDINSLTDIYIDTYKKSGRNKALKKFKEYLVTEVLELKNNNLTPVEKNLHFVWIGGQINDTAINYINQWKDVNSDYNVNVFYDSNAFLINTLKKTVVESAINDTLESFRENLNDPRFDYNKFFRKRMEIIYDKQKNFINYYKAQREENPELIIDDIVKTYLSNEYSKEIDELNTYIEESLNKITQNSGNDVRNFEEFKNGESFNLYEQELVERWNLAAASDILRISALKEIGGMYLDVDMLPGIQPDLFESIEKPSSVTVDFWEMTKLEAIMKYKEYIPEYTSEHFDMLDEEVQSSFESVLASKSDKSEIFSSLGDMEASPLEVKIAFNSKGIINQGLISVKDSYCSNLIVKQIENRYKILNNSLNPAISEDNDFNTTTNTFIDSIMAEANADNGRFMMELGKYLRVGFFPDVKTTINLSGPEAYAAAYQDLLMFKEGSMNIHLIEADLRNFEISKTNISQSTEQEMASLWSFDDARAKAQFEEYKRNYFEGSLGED
# [2] = target: T1, TcdB-GTD; test: biochemical; type: biochemical, Clostridium difficile
# [3] = target: T2, TcdA-GTD (Clostridioides difficile, UniProt P16154); test: biochemical; type: biochemical, Clostridium difficile
# T2 construct: TcdA-GTD (amino acids 1–542); His6 (C); made in house; host or cells: E. coli One shot BL21 Star (DE3)
# T2 sequence (P16154 1-542): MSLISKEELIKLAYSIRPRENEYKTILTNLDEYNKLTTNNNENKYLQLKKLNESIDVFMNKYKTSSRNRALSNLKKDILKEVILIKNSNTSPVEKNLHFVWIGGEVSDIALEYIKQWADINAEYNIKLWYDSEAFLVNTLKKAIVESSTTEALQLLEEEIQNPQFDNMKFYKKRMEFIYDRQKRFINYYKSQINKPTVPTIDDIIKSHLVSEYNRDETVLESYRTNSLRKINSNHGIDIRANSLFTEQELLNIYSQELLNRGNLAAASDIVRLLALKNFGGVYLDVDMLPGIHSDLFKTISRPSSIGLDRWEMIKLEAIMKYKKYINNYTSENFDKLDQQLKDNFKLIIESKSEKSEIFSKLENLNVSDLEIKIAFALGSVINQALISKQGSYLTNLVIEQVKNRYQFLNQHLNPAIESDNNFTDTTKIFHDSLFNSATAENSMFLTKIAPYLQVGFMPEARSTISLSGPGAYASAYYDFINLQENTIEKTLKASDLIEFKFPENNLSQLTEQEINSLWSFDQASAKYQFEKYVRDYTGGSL
# [4] = target: T1, TcdB-GTD; type: binding, Clostridium difficile
# [5] = target: T3, TcdB-GTD in the presence of UDP (Clostridioides difficile, UniProt P18177); test: biochemical; type: binding, Clostridium difficile; details: for Kd: ITC, 1 mM UDP
# T3 construct: C-terminal His-6 tagged TcdB-GTD (amino acids 1-546); His6 (C); made in house; host or cells: Escherichia coli One Shot BL21 Star (DE3)
# T3 sequence (P18177 1-546 limits assumed): as the sequence (P18177 1-546 limits assumed) above
# [6] = system: TcdA-induced cell rounding of Vero cells; test: cells; type: cell-based; details: Chlorocebus sabaeus, 2 h, read-out: Calculated IC50 cell rounding
# [7] = system: TcdB-induced cell rounding of Vero cells; test: cells; type: cell-based; details: Chlorocebus sabaeus, 1.5 h, read-out: Calculated IC50 cell rounding
# [8] = system: TcdA-induced cell rounding of IMR90 cells; type: cell-based, human
# [9] = system: TcdB-induced cell rounding of IMR90 cells; type: cell-based, human
# [10] = system: Rac1 glucosylation by TcdA in IMR90 cells; test: Western blot analysis of Rac1 glucosylation in IMR90 cells, TcdA; type: cell-based, human; details: 12.5–100 µM iminosugar, 1 nM TcdA, 6 h
# Experimental: (§1) IMR90 cells were grown in EMEM with 10% FBS in 24-well plates inoculated at 50,000 cells/well. […] Next, TcdA (1 nM final) or TcdB (0.1 nM final) was added to each well and cells were incubated at 37 °C, 5% CO2 for 6 h. The cells were lysed with mammalian cell lysis buffer (Abcam) according to manufacturer’s instructions. Cell lysates (2 µg) were heated at 95 °C in XT-loading dye (Bio-rad) before being loaded on an SDS polyacrylamide gel. Following electrophoresis, samples were transferred to PVDF membrane using an iblot2 device (ThermoFisher), blocked with 1% milk in PBS 0.1% Tween 20 for 1 h at room temperature and probed with a 1/4000 dilution of anti-Rac1 (Mab102, Thermo Fisher) and 1/8000 of anti-GAPDH antibody (Abcam) for 1 h at room temperature. Following incubation with the primary antibody, the membrane was washed 3 times with PBS with 0.1% Tween20 and incubated with a 1/40,000 dilution of secondary antibody for 1 h. Following incubation with the secondary antibody, the membrane was washed 3 times in PBS 0.1% tween 20 before a final wash in PBS. […]
# [11] = system: Rac1 glucosylation by TcdB in IMR90 cells; test: Western blot analysis of Rac1 glucosylation in IMR90 cells, TcdB; type: cell-based, human; details: 12.5–100 µM iminosugar, 0.1 nM TcdB, 6 h
# Experimental: as §1
# [12] = system: TcdA-induced apoptosis of HT-29 cells; type: cell-based
# [13] = system: cell lines; test: Cell toxicity of the iminosugars in the cell lines used; type: cell-based; details: high treatment concentrations
# [14] = system: Gaucher disease patients; set-up: method as in NCTs: 00433147; 00446550; 00813865; 00875160; details: ref NCTs: 00433147, 00446550, 00813865, 00875160, cited from earlier work
# [15] = set-up: method as in Khanna et al, FEBS journal, 2010, vol 277, p 1618; details: after administration; ref Khanna et al, FEBS journal, 2010, vol 277, p 1618; cited from earlier work
# [16] = system: TcdB-GTD; details: cited from earlier work
# [17] = system: C. sordelli lethal toxin; details: cited from earlier work
# [18] = Ki TcdB-GTD glucohydrolase activity
# [19] = Ki TcdB-GTD glucosyltransferase activity
# [20] = Ki TcdB-GTD glucosyltransferase activity, fixed concentration of UDP at 2 x Ki UDP
# [21] = Ki TcdA-GTD glucosyltransferase activity
# [22] = Ki TcdA-GTD glucosyltransferase activity, fixed concentration of UDP at 2 x Ki UDP
smiles,measurement,setting,value
OC[C@H]1CNC[C@@H](O)[C@@H]1O [Isofagomine],Ki,[1]; [18],4.8 ± 0.2 µM
same,Mode of inhibition versus UDP-glucose,[2],uncompetitive
same,fold improvement of inhibitory affinity in the presence of UDP,[2],2.4 fold
same,Ki,[2]; [19],1.4 ± 0.1 µM
same,Ki,[2]; [20],0.29 ± 0.06 µM
same,remaining activity at 0.015 µM,[2]; read-out: % enzyme activity,99.7%
same,remaining activity at 0.061 µM,[2]; read-out: % enzyme activity,100%
same,remaining activity at 0.24 µM,[2]; read-out: % enzyme activity,88.2%
same,remaining activity at 0.48 µM,[2]; read-out: % enzyme activity,95.9%
same,remaining activity at 1.95 µM,[2]; read-out: % enzyme activity,72%
same,remaining activity at 3.9 µM,[2]; read-out: % enzyme activity,37.8%
same,remaining activity at 3.906 µM,[2]; read-out: % enzyme activity,15.8%
same,remaining activity at 7.81 µM,[2]; read-out: % enzyme activity,19.7%
same,remaining activity at 15.62 µM,[2]; read-out: % enzyme activity,8.07%
same,remaining activity at […],[2]; read-out: % enzyme activity,87.8% and 80.5% and 43.4%
same,Mode of inhibition versus UDP-glucose,[3],uncompetitive inhibition
same,fold improvement of inhibition constant for TcdA-GTD relative to TcdB-GTD,[3],5.8 fold
same,fold improvement of inhibition constant in the presence of UDP,[3],15 fold
same,Ki,[3]; [21],0.24 ± 0.01 µM
same,Ki,[3]; [22],0.016 ± 0.002 µM
same,Binding to TcdB-GTD alone (ITC),[4],no significant binding
same,ΔH,[5],-10.3 ± 0.1 kcal/mol
same,−TΔS,[5],0.5 ± 0.2 kcal/mol
same,Kd,[5],0.067 µM and 0.0669 µM
same,IC50,[6],5.5 ± 1.5 µM
same,IC50,[7],8.3 ± 3.6 µM
same,Effect on toxin-induced cell rounding,[8],prevented
same,Effect on toxin-induced cell rounding,[9],prevented
same,Unglucosylated Rac1 (Mab102) versus total Rac1,[10],dose-dependent reappearance of unglucosylated Rac1
same,Unglucosylated Rac1 (Mab102) versus total Rac1,[11],dose-dependent reappearance of unglucosylated Rac1
same,Effect on TcdA-induced apoptosis (Annexin V),[12],prevented apoptosis
same,Cell toxicity,[13],no cell toxicity
same,Tolerability of oral doses,"[14]; 225 mg/day oral, Gaucher patients",well tolerated
same,Reduction in Gaucher disease symptoms,[14]; majority of patients,did not show a significant reduction
same,"Time to maximal levels in plasma, liver, spleen and brain",[15],≤ 1 h
"O=C1O[C@H](CO)[C@@H](O)[C@H](O)[C@H]1O [Gluconolactone, D-gluconon-1,5-lactone]",Ki,[1]; [18],414 µM
same,Ki,[2]; [19],440 µM
"OC[C@@H]1[C@@H](O)[C@H](O)[C@H]2[C@@H](O)CCN21 [Australine HCl, australine hydrochloride]",Ki,"[1]; read-out: Ki TcdB-GTD GH activity, no inhibition",> 10000 µM
same,Ki,[1]; read-out: Ki TcdB-GTD glucohydrolase activity,> 10000 µM
same,remaining activity at 500 µM,[2]; read-out: % enzyme activity,73.4%
same,remaining activity at 1000 µM,[2]; read-out: % enzyme activity,45.1%
same,remaining activity at 2000 µM,[2]; read-out: % enzyme activity,21.8%
same,remaining activity at 4000 µM,[2]; read-out: % enzyme activity,0%
same,remaining activity at […],[2]; read-out: % enzyme activity,100%
same,Ki,[2]; read-out: Ki TcdB-GTD glucosyltransferase activity,1570 ± 430 µM
OC[C@H]1NC[C@H](O)[C@@H](O)[C@@H]1O [Deoxynojirimycin],Inhibition of TcdB-GTD GH activity,[1],did not inhibit
same,Ki,[1]; [18],> 10000 µM
same,Inhibition of TcdB-GTD GT activity,[2],did not inhibit
same,Ki,[2]; [19],> 10000 µM
"O.O=c1ccn([C@@H]2O[C@H](COP(=O)([O-])OP(=O)([O-])O)[C@@H](O)[C@H]2O)c(=O)[nH]1.[Na+].[Na+] [UDP, Uridine 5’diphosphate disodium salt hydrate]",Mode of inhibition versus UDP-glucose,[2],competitive inhibition
same,remaining activity at 4.84 µM,[2]; read-out: % enzyme activity,86.1%
same,remaining activity at 19.37 µM,[2]; read-out: % enzyme activity,65.3%
same,remaining activity at 78 µM,[2]; read-out: % enzyme activity,19.7%
same,remaining activity at […],[2]; read-out: % enzyme activity,99.1%
same,ΔH,[4],-14.3 ± 3.9 kcal/mol
same,−TΔS,[4],8.2 ± 3.8 kcal/mol
OC[C@H]1OC(O)[C@H](O)[C@@H](O)[C@@H]1O (stereo partly shown) [Glucose],Inhibition,[2],no significant inhibition
same,Inhibition of TcdB-GTD,[16]; ref 42 (numbering of the author response),no significant inhibition
O[C@H]1[C@H]2[C@H](O)CCCN2C[C@H]1O [Swainsonine],Ki,[1]; Ki TcdB-GTD GH activity,> 10000 µM
same,Ki,[1]; [18],> 10000 µM
same,Ki,[2]; Ki TcdB-GTD GT activity,> 10000 µM
same,Ki,[2]; [19],> 10000 µM
O[C@H]1[C@H](O)[C@@H](O)CN2CC[C@H](O)[C@H]12 [Castanospermine],Ki,[1]; [18],3400 ± 200 µM
same,Ki,[2]; [19],680 ± 20 µM
same,remaining activity at 1000 µM,[2]; read-out: % enzyme activity,25.9%
same,remaining activity at 4000 µM,[2]; read-out: % enzyme activity,0%
same,IC50,[17],~100 µM
same,IC50,[16],~400 µM
OC[C@H]1CNC(O)[C@@H](O)[C@@H]1O (stereo partly shown) [Noeuromycin],Ki,[1]; [18],12 ± 1.6 µM
same,Mode of inhibition versus UDP-glucose,[2],uncompetitive
same,fold improvement of inhibitory affinity in the presence of UDP,[2],4.8 fold
same,fold less potent than isofagomine,[2],7.6 fold
same,Ki,[2]; [19],10.6 ± 1 µM
same,Ki,[2]; [20],4.4 ± 0.1 µM
same,fold improvement of inhibition constant for TcdA-GTD relative to TcdB-GTD,[3],2.3 fold
same,fold improvement of inhibition constant in the presence of UDP,[3],23 fold
same,Ki,"[3]; Ki TcdA-GTD GT activity, fixed concentration of UDP at 2 x Ki UDP",0.21 ± 0.05 µM
same,Ki,[3]; [21],4.7 ± 0.2 µM
same,Ki,[3]; [22],0.214 ± 0.055 µM
same,Binding to TcdB-GTD alone (ITC),[4],no significant binding
same,ΔH,[5],-5.2 ± 0.1 kcal/mol
same,−TΔS,[5],4.2 ± 0.3 kcal/mol
same,Kd,[5],0.18 µM
same,IC50,[6],9.6 ± 3.3 µM
same,IC50,[7],13.6 ± 5.6 µM
same,Effect on toxin-induced cell rounding,[8],prevented
same,Effect on toxin-induced cell rounding,[9],prevented
same,Unglucosylated Rac1 (Mab102) versus total Rac1,[10],dose-dependent reappearance of unglucosylated Rac1
same,Unglucosylated Rac1 (Mab102) versus total Rac1,[11],dose-dependent reappearance of unglucosylated Rac1
same,Effect on TcdA-induced apoptosis (Annexin V),[12],prevented apoptosis
same,Cell toxicity,[13],no cell toxicity
